Measurements published in patent US9107879B1, “Methods of increasing the cytotoxicity of chemotherapeutic agents with multisubstrate inhibitors of histone, protein-lys, polyamine acetylation, and polyamine metabolism” (Vanderbilt University, priority 2010, dated 2015).

How the values were obtained:
[1] = target: T1, recombinant p300 (1284-1660) (Homo sapiens, UniProt Q09472); test: p300 HAT solution assay, H4 peptide substrate, DTNB detection; format: biochemical
T1 construct: p300 protein (residues 1284-1660); made in house
T1 sequence (Q09472 1284-1660): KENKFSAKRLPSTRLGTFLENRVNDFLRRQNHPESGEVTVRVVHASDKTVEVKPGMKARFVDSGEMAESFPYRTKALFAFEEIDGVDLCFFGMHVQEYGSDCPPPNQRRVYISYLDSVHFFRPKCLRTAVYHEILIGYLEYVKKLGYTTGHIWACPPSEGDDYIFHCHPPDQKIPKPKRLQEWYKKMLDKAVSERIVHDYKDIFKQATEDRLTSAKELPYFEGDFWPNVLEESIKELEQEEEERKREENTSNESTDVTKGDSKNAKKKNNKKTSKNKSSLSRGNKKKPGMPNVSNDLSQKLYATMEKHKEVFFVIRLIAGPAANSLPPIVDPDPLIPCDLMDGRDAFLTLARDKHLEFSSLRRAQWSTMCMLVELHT
Description: (§1) (A) Structures of compound 1a (spermidine CoA), and the acetylated side chain of a lysine residue of a polypeptide chain. (B) Inhibition of p300 acetylating activity as a function of 1a concentration. The catalytic domain of recombinant p300 (1284-1660) was assayed under steady state conditions using an N-terminal acetylated histone H4 peptide substrate, Ac-H4(1-19)-NH2. Closed circles represent experimental data points; plain line represents theoretical profile based on data reduction software (Prism) using a one site inhibition model. (C) In vitro assay of p300 activity using a 96-well assay kit (ActivMotif) and an H3 peptide substrate (5-23), according to manufacturer's instructions. Bars represent average of duplicates. BK=background (no enzyme); C=control (no inhibitor); [1a]=50 μM.
Assays were performed using the fluorescent HAT assay kit (Active Motif, Carlsbad, Calif.), an H3 peptide as substrate (residues 5-23), the p300 catalytic domain as enzyme, and 50 μM inhibitor in duplicate, according to the manufacturer's instructions. […] The reaction product, CoASH, was detected spectrophotometrically by reaction with 5,5′-dithiobis-2-nitrobenzoic acid (DTNB). Assays were carried out at 30° C. for 30 minutes, conditions which had previously been determined in kinetic assays to sufficient to achieve steady state. […]

[2] = target: T2, p300 catalytic domain (Homo sapiens, UniProt Q09472); test: fluorescent HAT assay kit (Active Motif), 96-well; format: biochemical
T2 construct: the catalytic domain of p300(965-1810); purchased Active Motif, Carlsbad, Calif
T2 sequence (Q09472 965-1810): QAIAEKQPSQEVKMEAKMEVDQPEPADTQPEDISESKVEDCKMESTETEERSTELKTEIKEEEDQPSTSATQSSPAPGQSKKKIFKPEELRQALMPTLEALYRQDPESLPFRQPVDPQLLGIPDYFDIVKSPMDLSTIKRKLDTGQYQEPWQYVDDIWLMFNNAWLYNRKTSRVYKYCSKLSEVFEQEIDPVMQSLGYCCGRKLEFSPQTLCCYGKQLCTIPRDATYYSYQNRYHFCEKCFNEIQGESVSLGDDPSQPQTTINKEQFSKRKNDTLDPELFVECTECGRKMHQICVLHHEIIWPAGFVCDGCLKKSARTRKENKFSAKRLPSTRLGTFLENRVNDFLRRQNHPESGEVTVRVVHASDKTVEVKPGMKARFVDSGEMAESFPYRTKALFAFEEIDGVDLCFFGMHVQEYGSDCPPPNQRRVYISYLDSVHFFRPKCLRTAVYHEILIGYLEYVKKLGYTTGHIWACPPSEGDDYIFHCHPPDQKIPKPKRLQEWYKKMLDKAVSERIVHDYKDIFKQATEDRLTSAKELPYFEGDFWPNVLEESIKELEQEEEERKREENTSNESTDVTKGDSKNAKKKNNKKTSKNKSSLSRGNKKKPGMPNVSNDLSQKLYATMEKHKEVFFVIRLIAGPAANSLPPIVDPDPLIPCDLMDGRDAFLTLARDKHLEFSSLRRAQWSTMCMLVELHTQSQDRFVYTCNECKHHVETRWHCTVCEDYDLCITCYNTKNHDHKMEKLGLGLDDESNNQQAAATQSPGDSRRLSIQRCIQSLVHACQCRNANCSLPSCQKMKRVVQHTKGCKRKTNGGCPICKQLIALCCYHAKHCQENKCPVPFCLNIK
Description: as §1, with “BK=background (no enzyme); C=control (no inhibitor); [1a]=50 μM.” left out
Reactions were set up in duplicate following the protocol supplied by the kit. […] Activity is measured in fluorescence units. […]
Assays were performed using the fluorescent HAT assay kit (Active Motif, Carlsbad, Calif.), an H3 peptide as substrate (residues 5-23), the p300 catalytic domain as enzyme, and 50 μM inhibitor in duplicate, according to the manufacturer's instructions. […] The reaction product, CoASH, was detected spectrophotometrically by reaction with 5,5′-dithiobis-2-nitrobenzoic acid (DTNB). Assays were carried out at 30° C. for 30 minutes, conditions which had previously been determined in kinetic assays to sufficient to achieve steady state.

[3] = tested on: GT41F skin fibroblasts; test: 96-well MTS viability assay; format: cell-based, human; conditions: 3 days; for sensitivity of normal fibroblasts compared with cancer cell lines: single agent

Ki ([1]; from IC50=Ki(1+Km/S)≅Ki under substrate excess, read-out: estimated Ki for p300 fragment) [µM]	IC50 ([1]; histone H4 N-terminal peptide substrate, inferred from inhibitory plot, one site model, read-out: IC50, p300HAT catalytic subunit activity) [µM]	suppression of p300HAT-mediated incorporation of acetyl groups relative to control enzyme ([2]; 50 μM inhibitor, H3 peptide substrate, FIG. 1C) [%]	p300 HAT inhibition in vitro ([2]; kit assay, 2a at 50 μM)	SMILES	sensitivity of normal fibroblasts compared with cancer cell lines [3]	cell viability retained ([3]; spd-3a 1 μM) [%]
50 to 100	50 to 100	88		CC(C)(COP(=O)(O)OP(=O)(O)OC[C@H]1O[C@@H](n2cnc3c(N)ncnc32)[C@H](O)[C@@H]1OP(=O)(O)O)[C@@H](O)C(=O)NCCC(=O)NCCSCC(=O)NCCCNCCCCN [1a, spermidine[N1]-CoA]		
				CC(=O)NCCSCC(=O)NCCCNCCCCN [3a]	less sensitive	~60
			HAT inhibitors	CC(=O)NCCSCC(=O)NCCCNCCCCNCCCN [spm-3]	sensitivity similar to that of H358 lung cancer cells	
